Results: patent US5574026A, “Methods for inhibiting angiogenesis proliferation of endothelial or tumor cells and tumor growth” (American Cyanamid Company, priority 1994, dated 1996)
Where a name gives a salt, the structure may show the parent alone. Read-outs that look alike come from different tables or passages of the source.

Tests used:
angiogenesis = details: Brem et al; in words; cited from earlier work
HTB 161 = test: Antiproliferative activity in human tumor cell lines, PROTOCOL 1 and PROTOCOL 2; assay type: cell-based; details: HTB 161, 48 hours
Protocol: (§1) The assays are identified as follows: PROTOCOLS 1, 2, and 3 are described in greater detail hereinbelow. In general, according to PROTOCOLS 1 and 2, the target ABAE and/or Human Tumor cells are exposed to the compounds of Formula I for 48 hours. PROTOCOL 3 exposes ABAE cells to the compounds for 4 days. A detailed description of the Protocols is as follows: Antiproliferative Activity in Human Tumor Cell Lines The antiproliferative activity of the compounds of Formula I of the present invention is evaluated in a panel comprised of human tumor cell lines. […] Cultures are renewed after 20 passages with cells from a fresh stock of batch-frozen early passage cells. Cell lines are routinely checked for mycoplasma contamination (Genprobe). In a laminar flow hood, cells (1-5×10^4) are plated into 96-well microtiter plates in a volume of 0.1 ml/well with a bulk microtiter dispenser (Denley). […] Compounds are added using a Tomtec dispenser which simultaneously dispenses from one 96-well plate, containing the drug dilutions, to the plates containing the cells. After two days of continuous drug exposure, 50% cold trichloroacetic acid (TCA) is added to 10% final concentration to fix the cells, and after 60 minutes at 4° C., the TCA is aspirated and the plates are washed 5 times with deionized water using a microtiter plate washer. […] A 0.4% solution of the dye, sulforhodamine B, in glacial acetic acid is added to the plates, and the plates are washed 5 times with 1% glacial acetic acid using the automatic plate washed. The bound stain is solubilized with 0.1 ml of 10 mMTris base. The optical densities are read from an automatic spectrophotometric plate reader (Dynatech) directly to a main frame computer (VAX 8600). Positive controls, that include standard chemotherapeutic drugs (i.e., adriamycin, cisplatin, etc.), are included in every experiment. Background optical density measurements (complete media--cells, and complete media+drug-cells) are automatically subtracted from the appropriate control and test wells. Mean values and standard errors are determined from duplicate wells. A measure is also made of the optical density at time when the drugs are added. The number of cells after treatment (P), as % of control, is calculated for every concentration of drug, as follows: [formula] wherein: T is optical density measurement for treated cells after 48 hours; C is optical density measurement for untreated cells after 48 hours; Co is optical density measurement for cells at the time of drug addition. IC50 of Growth inhibition is calculated from the sets of P values using the RS-1 data package (BBN Software). Antiproliferative Activity in Human Tumor and Adult Bovine Aortic Endothelial Cell Lines (ABAE) The antiproliferative activity of the compounds of Formula I is evaluated in a panel comprised of human tumor cell lines as listed in Protocol 1 as well as an adult bovine aortic endothelial cell line (ABAE). This assay is a modification of PROTOCOL 1.

A2780S = test: as above; assay type: cell-based
Protocol: as §1

A2780/DDP = test: as above; assay type: cell-based
Protocol: as §1

MIP = test: as above; assay type: cell-based; details: colon tumor cell line MIP, 48 hours
Protocol: (§2) The antiproliferative activity of the compounds of Formula I in an Adult Bovine Aortic Endothelial (ABAE) cell line and in Human Tumor cells lines is evaluated in three similar assays that measure growth inhibition. The assays are identified as follows:
(§3) PROTOCOLS 1, 2, and 3 are described in greater detail hereinbelow. In general, according to PROTOCOLS 1 and 2, the target ABAE and/or Human Tumor cells are exposed to the compounds of Formula I for 48 hours. PROTOCOL 3 exposes ABAE cells to the compounds for 4 days. A detailed description of the Protocols is as follows:
(§4) Antiproliferative Activity in Human Tumor Cell Lines
(§5) The antiproliferative activity of the compounds of Formula I of the present invention is evaluated in a panel comprised of human tumor cell lines. The human tumor cell lines are from
(§6) 2) Colon tumors: MIP, CACO2, and SW620.
(§7) All cell lines are maintained in log phase in RPMI 1640 media, supplemented with 5% fetal calf serum, penicillin/streptomycin and 2 mM L-glutamine. Cultures are renewed after 20 passages with cells from a fresh stock of batch-frozen early passage cells. Cell lines are routinely checked for mycoplasma contamination (Genprobe). In a laminar flow hood, cells (1-5×10^4) are plated into 96-well microtiter plates in a volume of 0.1 ml/well with a bulk microtiter dispenser (Denley). […] At this concentration, dimethylsulfoxide has no effect on cell growth. Compounds are added using a Tomtec dispenser which simultaneously dispenses from one 96-well plate, containing the drug dilutions, to the plates containing the cells. After two days of continuous drug exposure, 50% cold trichloroacetic acid (TCA) is added to 10% final concentration to fix the cells, and after 60 minutes at 4° C., the TCA is aspirated and the plates are washed 5 times with deionized water using a microtiter plate washer. The number of cells on the plate are quantitated using a protein dye-binding assay (Monks et al., 1991). A 0.4% solution of the dye, sulforhodamine B, in […] is added to the plates, and the plates are washed 5 times with 1% glacial acetic acid using the automatic plate washed. The bound stain is solubilized with 0.1 ml of 10 mMTris base. The optical densities are read from an automatic spectrophotometric plate reader (Dynatech) directly to a main frame computer (VAX 8600).
(§8) Positive controls, that include standard chemotherapeutic drugs (i.e., adriamycin, cisplatin, etc.), are included in every experiment.
(§9) Background optical density measurements (complete media--cells, and complete media+drug-cells) are automatically subtracted from the appropriate control and test wells. Mean values and standard errors are determined from duplicate wells. A measure is also made of the optical density at time when the drugs are added. The number of cells after treatment (P), as % of control, is calculated for every concentration of drug, as follows: [formula] wherein: T is optical density measurement for treated cells after 48 hours;
(§10) C is optical density measurement for untreated cells after 48 hours;
(§11) Co is optical density measurement for cells at the time of drug addition.
(§12) IC50 of Growth inhibition is calculated from the sets of P values using the RS-1 data package (BBN Software).
(§13) Antiproliferative Activity in Human Tumor and Adult Bovine Aortic Endothelial Cell Lines (ABAE)
(§14) The antiproliferative activity of the compounds of Formula I is evaluated in a panel comprised of human tumor cell lines as listed in Protocol 1 as well as an adult bovine aortic endothelial cell line (ABAE). This assay is a modification of PROTOCOL 1. The modifications include:
(§15) 1) each concentration for each compound is tested in a single well;
(§16) 2) compounds are tested at 20, 4, 0.8, 0.16 microgram/ml and additionally in some experiments at 100 and 0.32 microgram/ml;
(§17) 3) samples are pipetted into a 96-well plate for each of the cell lines by a Beckman Biomek 1000 SL robot; […]

SW620 = test: as above; assay type: cell-based
Protocol: as §2, §3, §4, §5, §6, §7, §8, §9, §10, §11, §12, §13, §14, §15, §16, §17

Human Tumor cell lines = test: Antiproliferative activity in panel of human tumor cell lines (average / panel as a whole), PROTOCOL 1 and PROTOCOL 2; assay type: cell-based; details: Homo sapiens; average over the tumor cell lines tested
Protocol: as §2, §3, §4, §5, §6, §7, §8, §9, §10, §11, §12, §13, §14, §15, §16, §17

[1] = tested on: Adult Bovine Aortic Endothelial (ABAE) cell line; test: Antiproliferative activity in Adult Bovine Aortic Endothelial (ABAE) cell line, PROTOCOL 3 (4 days, cell count); assay type: cell-based; details: for IC50: Bos taurus, 96 h
Protocol: as §2, §3
Antiproliferative Activity in Adult Bovine Aortic Endothelial (ABAE) Cell Line
ABAE cells are grown in DMEM media (Mediatech, Washington, D.C.) supplemented with 10% calf serum (Hyclone). ABAE cells are plated in 24-well dishes at 8,000 cells/well, followed by the addition of increasing concentrations of 7-halogen-9-[hydrogen or [(substituted glycyl)amido]]-6-demethyl-6-deoxytetracycline. After four days, the cells are detached and counted. […] The growth inhibition (I) as % of control is calculated as follows: [formula] wherein: Nc is the number of cells in untreated wells;
Nt is the number of cells in treated wells;
No is the number of plated cells.
IC50 of growth inhibition is determined from the sets of I values plotted by Kaleidograph software (Abelbeck Software).
Table 1 presents the results depicting the antiproliferative activity of the compounds of Formula I against an ABAE cell line, as evaluated by PROTOCOL 2 and PROTOCOL 3. The results are presented in terms of IC50 and are as follows.

CACO2 = test: Antiproliferative activity in human tumor cell lines, PROTOCOL 1 and PROTOCOL 2; assay type: cell-based; details: Caco-2, colon tumor cell line CACO2, 48 hours, read-out: IC50
Protocol: as §2, §3, §4, §5, §6, §7, §8, §9, §10, §11, §12, §13, §14, §15, §16, §17

[2] = ovarian tumor cell line A2780S, 48 hours, read-out: IC50
[3] = SW-620, colon tumor cell line SW620, 48 hours, read-out: IC50

Row | Structure (SMILES) | inhibition of angiogenesis (angiogenesis) | IC50 (HTB 161) | IC50 (MIP) | IC50 (Human Tumor cell lines) | IC50 (A2780S; [2]) | IC50 (SW620; [3]) | other results
1 | CN(C)[C@@H]1C(O)=C(C(N)=O)C(=O)[C@@]2(O)C(O)=C3C(=O)c4c(O)ccc(Cl)c4[C@@](C)(O)[C@H]3C[C@@H]12 [Chlortetracycline] | useful as inhibitors of angiogenesis |  |  |  |  |  | 
2 | CN(C)[C@@H]1C(O)=C(C(N)=O)C(=O)[C@@]2(O)C(O)=C3C(=O)c4c(O)ccc(Cl)c4[C@@H](O)[C@H]3C[C@@H]12 [Demeclocycline] | useful as inhibitors of angiogenesis |  |  |  |  |  | 
3 | CN(C)[C@@H]1C(O)=C(C(N)=O)C(=O)[C@@]2(O)C(O)=C3C(=O)c4c(O)c(NC(=O)CN5CCCC5)cc(I)c4CC3CC12 (stereo partly drawn) [Example 5, [7S-(7α,10aα)]-N-9-[(Aminocarbonyl)-7-(dimethylamino)-5,5a,6,6a,7,10,10a,12-octahydro-1,8,10a,11-tetrahydroxy-4-iodo-10,12-dioxo-2-naphthacenyl]-1-pyrrolidineacetamide dihydrochloride] |  | 3 µg/mL | 4 µg/mL | 3.8 µg/mL |  |  | IC50 (A2780S; A2780S, 48 h): 4 µg/mL; IC50 (A2780/DDP; 48 h): 4 µg/mL; IC50 (SW620; SW-620, 48 h): 4 µg/mL
4 | CN(C)[C@@H]1C(O)=C(C(N)=O)C(=O)[C@@]2(O)C(O)=C3C(=O)c4c(O)c(NC(=O)CN5CCCCC5)cc(I)c4CC3CC12 (stereo partly drawn) [Example 6, [7S-(7α,10aα)]-N-9-[(Aminocarbonyl)-7-(dimethylamino)-5,5a,6,6a,7,10,10a,12-octahydro-1,8,10a,11-tetrahydroxy-4-iodo-10,12-dioxo-2-naphthacenyl]-1-piperidine-acetamide dihydrochloride] |  | 0.2 µg/mL | 0.6 µg/mL | 1 µg/mL | 0.2 µg/mL | 0.4 µg/mL | IC50 ([1]; ABAE cells, PROTOCOL 3, 4 days, read-out: IC50 PROTOCOL 3): 2.5 µg/mL; IC50 ([1]; FIG. 1, ABAE, 4 day assay (Protocol 3), read-out: inhibits 50% of cell growth at): ~2 µg/mL; activity upon incubation with cells ([1]; FIG. 1, 4 day assay (Protocol 3), in words): retains its activity; activity in preventing the proliferation of ABAE cells compared to Minocycline ([1]; Table 1, in words): increased activity; IC50 (A2780/DDP; ovarian tumor cell line /DDP, 48 hours, read-out: IC50): 0.8 µg/mL; IC50 (CACO2): 4 µg/mL
5 | CN(C)[C@@H]1C(O)=C(C(N)=O)C(=O)[C@@]2(O)C(O)=C3C(=O)c4c(O)c(NC(=O)CNC5CCCC5)cc(I)c4CC3CC12 (stereo partly drawn) [Example 7, [4S-(4',12aα)]-9-[[(Cyclopentylamino)acetyl]amino]-4-(dimethylamino)-1,4,4a,5,5a,6,11,12a-octahydro-3,10,12,12a-tetrahydroxy-7-iodo-1,11-dioxo-2-maphthacenecarboxamide dihydrochloride] |  | 1 µg/mL |  | 2 µg/mL | 2 µg/mL | 3 µg/mL | 
6 | CN(C)[C@@H]1C(O)=C(C(=O)NCNCCCC[C@H](N)C(=O)O)C(=O)[C@@]2(O)C(O)=C3C(=O)c4c(O)cccc4[C@@](C)(O)[C@H]3C[C@@H]12 [Lymecycline] | useful as inhibitors of angiogenesis |  |  |  |  |  | 
